Assay results taken from patent publication US20100292205A1, “Pyrimidone Compounds As GSK-3 Inhibitors” (PFIZER INC., priority 2006, published 2010).

Target: T1, Recombinant human GSK3β (Homo sapiens, UniProt P49841)
T1 construct: His-tag; made in house; host or cells: Sf9 insect cells / baculovirus
Assay: GSK-3β (Glycogen Synthase Kinase) cell free enzyme assay
Assay type: biochemical
Conditions: cell free enzyme assay; Examples 62-155
In short: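 Recombinant human GSK3β, expressed in SF9/baculovirus cells and His-tag purified on Ni-NTA Superflow, was preincubated with test agent for 30 minutes at room temperature. Substrate mix was then added to start the reaction in 8 mM MOPS (pH 7.0), 10 mM magnesium acetate, 0.2 mM EDTA, 1 mM DTT, 2 uM cold ATP, 0.025 uCi/well [33P]ATP (120 uL) and 1.0 uM biotinylated peptide. Reactions ran at RT for 60 min.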

T1 sequence (P49841 whole entry): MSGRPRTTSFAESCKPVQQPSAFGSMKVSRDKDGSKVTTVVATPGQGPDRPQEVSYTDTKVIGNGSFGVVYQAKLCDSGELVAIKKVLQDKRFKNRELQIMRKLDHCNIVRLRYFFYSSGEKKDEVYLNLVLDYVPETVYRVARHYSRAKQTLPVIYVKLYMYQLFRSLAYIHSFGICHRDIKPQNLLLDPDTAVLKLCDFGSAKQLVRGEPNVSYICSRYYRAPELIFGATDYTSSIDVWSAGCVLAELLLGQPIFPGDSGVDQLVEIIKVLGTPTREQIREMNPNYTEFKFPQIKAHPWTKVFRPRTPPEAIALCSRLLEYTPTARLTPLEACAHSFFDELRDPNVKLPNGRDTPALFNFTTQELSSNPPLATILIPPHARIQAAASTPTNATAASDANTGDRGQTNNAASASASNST

| Structure (SMILES) | IC50 [nM] |
| --- | --- |
| COc1ccccc1C(=O)N1C[C@@H]2[C@H](C1)[C@H]2N(C)c1nc(-c2ccncc2F)cc(=O)n1C [Example 106, 6-(3-Fluoropyridin-4-yl)-2-{[(1R,5S,6s)-3-(2-methoxybenzoyl)-3-azabicyclo[3.1.0]hex-6-yl](methyl)amino}-3-methylpyrimidin-4(3H)-one] | 0.91 |
| CN(c1nc(-c2ccncc2F)cc(=O)n1C)[C@H]1[C@@H]2CN(C(=O)C3CCCC3)C[C@@H]21 [Example 108, 2-{[(1R,5S,6s)-3-(Cyclopentylcarbonyl)-3-azabicyclo[3.1.0]hex-6-yl](methyl)amino}-6-(3-fluoropyridin-4-yl)-3-methylpyrimidin-4(3H)-one] | 6.39 |
| CC(C)CC(=O)N1C[C@@H]2[C@H](C1)[C@H]2N(C)c1nc(-c2ccncc2F)cc(=O)n1C [Example 110, 6-(3-Fluoropyridin-4-yl)-3-methyl-2-{methyl[(1R,5S,6s)-3-(3-methylbutanoyl)-3-azabicyclo[3.1.0]hex-6-yl]amino}pyrimidin-4(3H)-one] | 18.3 |
| CN(c1nc(-c2ccncc2F)cc(=O)n1C)[C@H]1[C@@H]2CN(C(=O)c3cccnc3Cl)C[C@@H]21 [Example 111, 2-[{(1R,5S,6s)-3-[(2-Chloropyridin-3-yl)carbonyl]-3-azabicyclo[3.1.0]hex-6-yl}(methyl)amino]-6-(3-fluoropyridin-4-yl)-3-methylpyrimidin-4(3H)-one] | 2.2 |
| CN(c1nc(-c2ccncc2F)cc(=O)n1C)[C@H]1[C@@H]2CN(C(=O)c3cnn(C)c3Cl)C[C@@H]21 [Example 120, 2-[{(1R,5S,6s)-3-[(5-Chloro-1-methyl-1H-pyrazol-4-yl)carbonyl]-3-azabicyclo[3.1.0]hex-6-yl}(methyl)amino]-6-(3-fluoropyridin-4-yl)-3-methylpyrimidin-4(3H)-one] | 4.52 |
| CN(c1nc(-c2ccncc2F)cc(=O)n1C)[C@H]1[C@@H]2CN(C(=O)C(C)(C)C)C[C@@H]21 [Example 121, 2-{[(1R,5S,6s)-3-(2,2-Dimethylpropanoyl)-3-azabicyclo[3.1.0]hex-6-yl](methyl)amino}-6-(3-fluoropyridin-4-yl)-3-methylpyrimidin-4(3H)-one] | 1.41 |
| CCCCOc1ccc(C(=O)N2C[C@@H]3[C@H](C2)[C@H]3N(C)c2nc(-c3ccncc3F)cc(=O)n2C)cc1 [Example 123, 2-{[(1R,5S,6s)-3-(4-Butoxybenzoyl)-3-azabicyclo[3.1.0]hex-6-yl](methyl)amino}-6-(3-fluoropyridin-4-yl)-3-methylpyrimidin-4(3H)-one] | 13.6 |
| CN(c1nc(-c2ccncc2F)cc(=O)n1C)[C@H]1[C@@H]2CN(C(=O)c3ccc(F)c(Cl)c3)C[C@@H]21 [Example 124, 2-{[(1R,5S,6s)-3-(3-Chloro-4-fluorobenzoyl)-3-azabicyclo[3.1.0]hex-6-yl](methyl)amino}-6-(3-fluoropyridin-4-yl)-3-methylpyrimidin-4(3H)-one] | 4.58 |

More lines, in order of falling IC50, values ahead:

| IC50 [nM] | Structure (SMILES) |
| --- | --- |
| 32.9 | CC(=O)O[C@@H](C)C(=O)N1C[C@@H]2[C@H](C1)[C@H]2N(C)c1nc(-c2ccncc2F)cc(=O)n1C [Example 119, (1S)-2-[(1R,5S,6R)-6-{[4-(3-Fluoropyridin-4-yl)-1-methyl-6-oxo-1,6-dihydropyrimidin-2-yl](methyl)amino}-3-azabicyclo[3.1.0]hex-3-yl]-1-methyl-2-oxoethyl acetate] |
| 18.4 | CN(c1nc(-c2ccncc2F)cc(=O)n1C)[C@H]1[C@@H]2CN(C(=O)C3CCC3)C[C@@H]21 [Example 107, 2-{[(1R,5S,6s)-3-(Cyclobutylcarbonyl)-3-azabicyclo[3.1.0]hex-6-yl](methyl)amino}-6-(3-fluoropyridin-4-yl)-3-methylpyrimidin-4(3H)-one] |
| 15.3 | CC(C)C(=O)N1C[C@@H]2[C@H](C1)[C@H]2N(C)c1nc(-c2ccncc2F)cc(=O)n1C [Example 114, 6-(3-Fluoropyridin-4-yl)-2-{[(1R,5S,6s)-3-isobutyryl-3-azabicyclo[3.1.0]hex-6-yl](methyl)amino}-3-methylpyrimidin-4(3H)-one] |
| 15.1 | CN(c1nc(-c2ccncc2F)cc(=O)n1C)[C@H]1[C@@H]2CN(C(=O)c3ccc(C(F)(F)F)cc3)C[C@@H]21 [Example 122, 6-(3-Fluoropyridin-4-yl)-3-methyl-2-(methyl{(1R,5S,6s)-3-[4-(trifluoromethyl)benzoyl]-3-azabicyclo[3.1.0]hex-6-yl}amino)pyrimidin-4(3H)-one] |
| 14.2 | CN(c1nc(-c2ccncc2F)cc(=O)n1C)[C@H]1[C@@H]2CN(C(=O)Cc3ccccc3)C[C@@H]21 [Example 115, 6-(3-Fluoropyridin-4-yl)-3-methyl-2-{methyl[(1R,5S,6s)-3-(phenylacetyl)-3-azabicyclo[3.1.0]hex-6-yl]amino}pyrimidin-4(3H)-one] |
| 8.81 | CN(c1nc(-c2ccncc2F)cc(=O)n1C)[C@H]1[C@@H]2CN(C(=O)c3ccoc3)C[C@@H]21 [Example 105, 6-(3-Fluoropyridin-4-yl)-2-{[(1R,5S,6s)-3-(3-furoyl)-3-azabicyclo[3.1.0]hex-6-yl](methyl)amino}-3-methylpyrimidin-4(3H)-one] |
| 8.57 | CN(c1nc(-c2ccncc2F)cc(=O)n1C)[C@H]1[C@@H]2CN(C(=O)c3ccc(OC(F)F)cc3)C[C@@H]21 [Example 113, 2-[{(1R,5S,6s)-3-[4-(Difluoromethoxy)benzoyl]-3-azabicyclo[3.1.0]hex-6-yl}(methyl)amino]-6-(3-fluoropyridin-4-yl)-3-methylpyrimidin-4(3H)-one] |
| 4.4 | CN(c1nc(-c2ccncc2F)cc(=O)n1C)[C@H]1[C@@H]2CN(C(=O)c3cc(Cl)cc(Cl)c3)C[C@@H]21 [Example 116, 2-{[(1R,5S,6s)-3-(3,5-Dichlorobenzoyl)-3-azabicyclo[3.1.0]hex-6-yl](methyl)amino}-6-(3-fluoropyridin-4-yl)-3-methylpyrimidin-4(3H)-one] |
| 4.03 | COc1ccc(CC(=O)N2C[C@@H]3[C@H](C2)[C@H]3N(C)c2nc(-c3ccncc3F)cc(=O)n2C)cc1 [Example 109, 6-(3-Fluoropyridin-4-yl)-2-[{(1R,5S,6s)-3-[(4-methoxyphenyl)acetyl]-3-azabicyclo[3.1.0]hex-6-yl}(methyl)amino]-3-methylpyrimidin-4(3H)-one] |
| 2.63 | CN(c1nc(-c2ccncc2F)cc(=O)n1C)[C@H]1[C@@H]2CN(C(=O)c3ccnc(Cl)c3)C[C@@H]21 [Example 112, 2-{[(1R,5S,6s)-3-(2-Chloroisonicotinoyl)-3-azabicyclo[3.1.0]hex-6-yl](methyl)amino}-6-(3-fluoropyridin-4-yl)-3-methylpyrimidin-4(3H)-one] |
| 1.84 | CN(c1nc(-c2ccncc2F)cc(=O)n1C)[C@H]1[C@@H]2CN(C(=O)c3c(F)cc(F)cc3F)C[C@@H]21 [Example 117, 6-(3-Fluoropyridin-4-yl)-3-methyl-2-{methyl[(1R,5S,6s)-3-(2,4,6-trifluorobenzoyl)-3-azabicyclo[3.1.0]hex-6-yl]amino}pyrimidin-4(3H)-one] |
| 1.11 | CN(c1nc(-c2ccncc2F)cc(=O)n1C)[C@H]1[C@@H]2CN(C(=O)c3ccccc3F)C[C@@H]21 [Example 118, 2-{[(1R,5S,6s)-3-(2-Fluorobenzoyl)-3-azabicyclo[3.1.0]hex-6-yl](methyl)amino}-6-(3-fluoropyridin-4-yl)-3-methylpyrimidin-4(3H)-one] |
